Results on 33 compounds are retold here after patent publication US20100278835A1, “NOVEL COMPOUNDS 660” (ASTRAZENECA UK LIMITED, priority 2009, published 2010).

Where only a bound is given, the exact number is not on record here.

For the first test, the system named is RSV RSS strain. Description: ELISA assay of antiviral activity against RSV (reduction in RSV protein expression). The test is classed as cell-based. The note with it: Hep-2 cells infected with RSV RSS strain, multiplicity of infection 0.02, 3 days; concentration required to inhibit RSV protein expression by 50%. The procedure:
The antiviral activity of these compounds against RSV was determined in an ELISA assay. […] ELISA assays were set up by seeding 96-well plates with 5×10^3 Hep-2 cells per well in 100 μl DMEM containing 10% FBS for 24 h. Compound dilutions were prepared in 0.5% DMSO and 50 μl/well was added to the assay plates, the plates were incubated at 37° C. in 5% CO2 for one hour. Cells were infected with 50 μl/well RSV RSS strain at a multiplicity of infection of 0.02 and were incubated at 37° C. in 5% CO2 for 3 days. Cells were then fixed and permeabilised with 75%/25% methanol acetone and blocked with 2% Marvel™, 0.05% Tween for one hour. Plates were then incubated in the presence of a 1:4000 dilution of […] polyclonal antibody (Millipore, AB1128) followed by a 1:1000 dilution of rabbit anti-goat, horseradish peroxidase (DAKO, PO449) labelled secondary antibody. The plates were developed with O-phenylenediamine in the presence of hydrogen peroxide. The antiviral activity of the compounds is presented as an IC50, the concentration required to inhibit RSV protein expression by 50%.
Regarding “1-[[5-[(3-aminopropylamino)methyl]-1-isopentyl-benzimidazol-2-yl]methyl]-3-cyclopropyl-4H-quinazolin-2-one [Example 32]”, the midpoint of inhibition, the IC50, lay at 32 nM.
The same measure, in the same setting: in the case of “3-cyclopropyl-1-[(1-isopentylbenzimidazol-2-yl)methyl]-4,4-dimethyl-quinazolin-2-one [Example 4]” it was 1420 nM; in that of “2-[(3-cyclopropyl-2-oxo-4H-quinazolin-1-yl)methyl]-N′-hydroxy-1-isopentyl-benzimidazole-5-carboxamidine [Example 38]”, 88.9 nM; in that of “1-[[5-(aminomethyl)-1-(4-hydroxybutyl)benzimidazol-2-yl]methyl]-3-cyclopropyl-4H-quinazolin-2-one [Example 25]”, 1.5 nM.
Same read-out and setting: in the case of `CC(C)CCn1c(CN2C(=O)N(CC3CCCCC3)Cc3ccccc32)nc2cc(CN)ccc21` [Example 19, 1-[[5-(aminomethyl)-1-isopentyl-benzimidazol-2-yl]methyl]-3-(cyclohexylmethyl)-4H-quinazolin-2-one] it was 2890 nM; in that of “1-[[5-[(3-aminopropylamino)methyl]-1-isopentyl-benzimidazol-2-yl]methyl]-3-(2-methoxyethyl)-4H-quinazolin-2-one [Example 33]”, 243 nM; in that of “1-[[5-[(3-aminopropylamino)methyl]-1-isopentyl-benzimidazol-2-yl]methyl]-3-methyl-4H-quinazolin-2-one [Example 31]”, 23 nM.
Consider `CC(C)CCN1Cc2ccccc2N(Cc2nc3cc(CN)ccc3n2CCC(C)C)C1=O` [Example 14, 1-[[5-(aminomethyl)-1-isopentyl-benzimidazol-2-yl]methyl]-3-isopentyl-4H-quinazolin-2-one], for which the IC50 (as a rule, the concentration that inhibits the measured activity by half) turned out to be 2.1 nM.
Take `CC(C)CCn1c(CN2C(=O)N(C3CC3)C(C)c3ccccc32)nc2cc(C(=N)N)ccc21` (stereo not drawn) [Example 36, 2-[(3-cyclopropyl-4-methyl-2-oxo-4H-quinazolin-l-yl)methyl]-1-isopentyl-benzimidazole-5-carboxamidine]: the IC50 is 8.4 nM.
As for `CC(C)CCn1c(CN2C(=O)N(CCCN3CCCC3)Cc3ccccc32)nc2cc(CN)ccc21` [Example 17, 1-[[5-(aminomethyl)-1-isopentyl-benzimidazol-2-yl]methyl]-3-(3-pyrrolidin-1-ylpropyl)-4H-quinazolin-2-one], the IC50 was 13.7 nM.

The test is the same for the next values; noted with them: human respiratory syncytial virus, 72 h; Hep-2 cells infected with RSV RSS strain, multiplicity of infection 0.02, 3 days; concentration required to inhibit RSV protein expression by 50%.
Consider `CC(C)CCn1c(CN2C(=O)N(C3CC3)C(C)(C)c3ccccc32)nc2cc(/C(N)=N/O)ccc21` [Example 40, 2-[(3-cyclopropyl-4,4-dimethyl-2-oxo-quinazolin-1-yl)methyl]-N′-hydroxy-1-isopentyl-benzimidazole-5-carboxamidine], for which the IC50 was over 1000 nM.
`CC1(C)c2ccccc2N(Cc2nc3cc(CN)ccc3n2CCCC(F)(F)F)C(=O)N1C1CC1` [Example 30, 1-[[5-(aminomethyl)-1-(4,4,4-trifluorobutyl)benzimidazol-2-yl]methyl]-3-cyclopropyl-4,4-dimethyl-quinazolin-2-one]: the IC50 was found to be 11 nM.
On the same count and under the same terms, to `N=C(N)c1ccc2c(c1)nc(CN1C(=O)N(C3CC3)Cc3ccccc31)n2CCCC(F)(F)F` [Example 41, 2-[(3-cyclopropyl-2-oxo-4H-quinazolin-1-yl)methyl]-1-(4,4,4-trifluorobutyl)benzimidazole-5-carboxamidine] belongs 1.6 nM; to `CN1Cc2ccccc2N(Cc2nc3cc(CN)ccc3n2CCCCO)C1=O` [Example 24, 1-[[5-(aminomethyl)-1-(4-hydroxybutyl)benzimidazol-2-yl]methyl]-3-methyl-4H-quinazolin-2-one], 3.2 nM; to `CC1c2ccccc2N(Cc2nc3cc(CN)ccc3n2CCCC(F)(F)F)C(=O)N1C1CC1` (stereo not drawn) [Example 29, 1-[[5-(aminomethyl)-1-(4,4,4-trifluorobutyl)benzimidazol-2-yl]methyl]-3-cyclopropyl-4-methyl-4H-quinazolin-2-one], 3.8 nM.
`CC(C)CCn1c(CN2C(=O)N(C3CCCC3)Cc3ccccc32)nc2cc(CN)ccc21` [Example 9, 1-[[5-(aminomethyl)-1-isopentyl-benzimidazol-2-yl]methyl]-3-cyclopentyl-4H-quinazolin-2-one] gave an IC50 of 1.3 nM.
In turn, `CN1Cc2ccccc2N(Cc2nc3cc(CNCCCN)ccc3n2CCCCO)C1=O` [Example 34, 1-[[5-[(3-Aminopropylamino)methyl]-1-(4-hydroxybutyl)benzimidazole-2-yl]methyl]-3-methyl-4H-quinazolin-2-one] came in with an IC50 of 84 nM.
The same measure, in the same setting: to `CC(C)CCn1c(CN2C(=O)N(C3CC3)C(C)c3ccccc32)nc2ccccc21` (stereo not drawn) [Example 3, 3-cyclopropyl-1-[(1-isopentylbenzimidazol-2-yl)methyl]-4-methyl-4H-quinazolin-2-one] belongs 1300 nM.
`CC(C)CCn1c(CN2C(=O)N(Cc3ccccc3)Cc3ccccc32)nc2cc(CN)ccc21` [Example 10, 1-[[5-(aminomethyl)-1-isopentyl-benzimidazol-2-yl]methyl]-3-benzyl-4H-quinazolin-2-one] came in with an IC50 of 15.7 nM.
Still for that read-out and setting: to `CC(C)CCn1c(CN2C(=O)N(CCc3ccccc3)Cc3ccccc32)nc2cc(CN)ccc21` [Example 11, 1-[[5-(aminomethyl)-1-isopentyl-benzimidazol-2-yl]methyl]-3-phenethyl-4H-quinazolin-2-one] belongs 18.8 nM.
Same read-out and setting: to `CC(C)CCn1c(CN2C(=O)N(CC3CC3)Cc3ccccc32)nc2cc(CN)ccc21` [Example 16, 1-[[5-(aminomethyl)-1-isopentyl-benzimidazol-2-yl]methyl]-3-(cyclopropylmethyl)-4H-quinazolin-2-one] belongs 5.9 nM; to `CC(C)CCn1c(CN2C(=O)N(C3CC3)Cc3c2cccc3C(F)(F)F)nc2cc(CN)ccc21` [Example 22, 1-[[5-(aminomethyl)-1-isopentyl-benzimidazol-2-yl]methyl]-3-cyclopropyl-5-(trifluoromethyl)-4H-quinazolin-2-one], 8.9 nM; to `CC1c2ccccc2N(Cc2nc3cc(C(N)=NO)ccc3n2CCCC(F)(F)F)C(=O)N1C1CC1` (stereo not drawn) [Example 44, 2-[(3-cyclopropyl-4-methyl-2-oxo-4H-quinazolin-1-yl)methyl]-N′-hydroxy-1-(4,4,4-trifluorobutyl)benzimidazole-5-carboxamidine], 229 nM.
Take `CC(C)CCN1Cc2ccccc2N(Cc2nc3ccccc3n2CCC(C)C)C1=O` [Example 2, 3-isopentyl-1-[(1-isopentylbenzimidazol-2-yl)methyl]-4H-quinazolin-2-one]: the IC50 is over 1000 nM.
Same read-out and setting: in the case of `CC(C)CCn1c(CN2C(=O)N(CC(C)C)Cc3ccccc32)nc2cc(CN)ccc21` [Example 15, 1-[[5-(aminomethyl)-1-isopentyl-benzimidazol-2-yl]methyl]-3-isobutyl-4H-quinazolin-2-one] it was 1.9 nM; in that of `CC1c2ccccc2N(Cc2nc3cc(C(=N)N)ccc3n2CCCC(F)(F)F)C(=O)N1C1CC1` (stereo not drawn) [Example 42, 2-[(3-cyclopropyl-4-methyl-2-oxo-4H-quinazolin-1-yl)methyl]-1-(4,4,4-trifluorobutyl)benzimidazole-5-carboxamidine], 11.8 nM; in that of `CCCN1Cc2ccccc2N(Cc2nc3cc(CN)ccc3n2CCC(C)C)C1=O` [Example 6, 1-[[5-(aminomethyl)-1-isopentyl-benzimidazol-2-yl]methyl]-3-propyl-4H-quinazolin-2-one], 1.2 nM.
Compound `CC1(C)c2ccccc2N(Cc2nc3cc(/C(N)=N/O)ccc3n2CCCC(F)(F)F)C(=O)N1C1CC1` [Example 45, 2-[(3-cyclopropyl-4,4-dimethyl-2-oxo-quinazolin-1-yl)methyl]-N′-hydroxy-1-(4,4,4-trifluorobutyl)benzimidazole-5-carboxamidine] came in with an IC50 of over 1000 nM.
For the compound `CC(C)CCn1c(CN2C(=O)N(C3CC3)Cc3cccnc32)nc2cc(CN)ccc21` [Example 12, 1-[[5-(aminomethyl)-1-isopentyl-benzimidazol-2-yl]methyl]-3-cyclopropyl-4H-pyrido[2,3-d]pyrimidin-2-one], half-maximal inhibition (IC50) was put at 53.1 nM.
Same read-out and setting: to `CC(C)CCn1c(CN2C(=O)N(C3CC3)C(C)(C)c3ccccc32)nc2cc(C(=N)N)ccc21` [Example 37, 2-[(3-cyclopropyl-4,4-dimethyl-2-oxo-quinazolin-1-yl)methyl]-1-isopentyl-benzimidazole-5-carboxamidine] belongs 42 nM.
Same read-out and setting: to `CSCCN1Cc2ccccc2N(Cc2nc3cc(CN)ccc3n2CCC(C)C)C1=O` [Example 18, 1-[[5-(aminomethyl)-1-isopentyl-benzimidazol-2-yl]methyl]-3-(2-methylsulfanylethyl)-4H-quinazolin-2-one] belongs 4 nM.
In turn, `CC1(C)c2ccccc2N(Cc2nc3cc(C(=N)N)ccc3n2CCCC(F)(F)F)C(=O)N1C1CC1` [Example 43, 2-[(3-cyclopropyl-4,4-dimethyl-2-oxo-quinazolin-1-yl)methyl]-1-(4,4,4-trifluorobutyl)benzimidazole-5-carboxamidine] displayed an IC50 of 18 nM.
Compound `CC(C)CCn1c(CN2C(=O)N(C(C)(C)C)Cc3ccccc32)nc2cc(CN)ccc21` [Example 8, 1-[[5-(aminomethyl)-1-isopentyl-benzimidazol-2-yl]methyl]-3-tert-butyl-4H-quinazolin-2-one] yielded an IC50 of 16.7 nM.
